Experimental data: US20100221763A1, “Specific Acceptors for Transferases to Saccharides and Method for Obtaining and Using Same” (Health Research, Inc, priority 2005, published 2010)
“And” between values parts separate entries of the source, which are not always exact repeats. Identical values can stand only once. Marks after values point to notes of the source that are not given here.

Key:
[1] = biological target: T1, Rat recombinant α2,3(O)ST (Rattus norvegicus, UniProt Q11205); assay: Sialyltransferase assay with cloned α2,3(O)ST; type: biochemical; conditions: Table I; acceptor 7.5 mM; [14C] sialylated product quantitated on Biogel P2 column
T1 construct: purchased Calbiochem
T1 sequence (Q11205 1-350): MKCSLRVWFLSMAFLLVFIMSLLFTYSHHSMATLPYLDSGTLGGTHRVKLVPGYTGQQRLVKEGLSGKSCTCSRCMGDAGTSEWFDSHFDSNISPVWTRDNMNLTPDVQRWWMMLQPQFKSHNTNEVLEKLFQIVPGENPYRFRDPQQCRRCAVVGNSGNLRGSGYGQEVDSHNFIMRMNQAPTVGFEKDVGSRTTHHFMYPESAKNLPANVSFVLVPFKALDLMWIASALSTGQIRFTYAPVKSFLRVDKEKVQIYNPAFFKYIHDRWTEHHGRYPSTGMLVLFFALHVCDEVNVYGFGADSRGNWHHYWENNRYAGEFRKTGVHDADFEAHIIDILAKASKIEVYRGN

[2] = biological target: T1, Rat recombinant α2,3(O)ST; assay: Sialyltransferase assay with cloned α2,3(O)ST; type: biochemical; conditions: for Sialyltransferase activity (%) Cloned α2,3(O)ST: Table I, acceptor 7.5 mM, 100% = 40560 CPM (3-O-MeGalβ1,4GlcNAcβ1,6(Galβ1,3)GalNAcα-O-Bn); for Cloned Sialyltransferase Activities α2,3(O) ST %: Table III, compound 7.5 mM, 100% = 39200 CPM (3-O-MeGalβ1,4GlcNAcβ1,6(Galβ1,3)GalNAcα-O-Bn)
Procedure: (§1) Rat recombinant α2,3(O)ST, α2,3(N)ST and α2,6(N)ST were purchased from Calbiochem and stored at either −20° C. or −70° C. as recommended by the supplier. […] 10 μl aliquots of the diluted enzymes were used in the assays run in duplicate.
(§2) The incubation mixtures run in duplicate contained 0.1M NaCacodylate buffer pH6.0, the acceptor (typically at 7.5 mM, or as indicated in some experiments), CMP-[9 ^3H] NeuAc (typically 0.2 μci; 20 μci/nmol or as indicated in some experiments) and the enzyme in a total volume of 20 μl. The control incubation mixtures contained everything except the acceptor. Incubation was carried out for 2 h at 37° C. The enzymatic transfer of [9-^3H] NeuAc to a typical acceptor was linear for 2 h and less than 30% CMP-[9-^3H] NeuAc was utilized. Chromatography, using either Dowex-1-Formate, Sep-Pak C18 or Biogel P2, was applied to separate radioactive product from un-reacted [9-^3H] NeuAc as described below.
(§3) The radioactive products from neutral allyl and methyl glycosides as well as non-glycosides were measured by fractionation on Dowex-1-Formate (Bio-Rad: AG-1X8; 200-400 mesh; format form) as follows: The incubation mixture was diluted with 1.0 ml water and passed through AG-1-formate column (1.0 ml bed volume in a Pasteur pipet which had been washed with 5 ml of 2M Formic acid followed by 10 ml water). The column was washed twice with 1.0 ml water after the entry of the sample and then eluted with 3.0 ml of 0.1M NaCl. The radioactivity present in water and 0.1M NaCl eluates were measured separately using 3a70 scintillation cocktail (Research Products International, Mount Prospect, Ill.) and a Beckman LS6500 scintillation counter. The CPM values were corrected by subtracting the blank CPM. Any radioactivity present in the water eluate (as noticed in the case of some methylglycosides) was added to the corresponding CPM value of 0.1M NaCl eluate. The radioactive products from sulfated and/or sialylated methylglycosides were also measured by the above procedure, only the elution of the AG-1-Formate column was continued further with 3.0 ml of 0.2M NaCl for achieving a complete elution of the radioactive product, a correction being made as before by subtracting the corresponding blank values.
(§4) The radioactive products from benzylglycosides and monosialylated benzylglycosides were measured by hydrophobic chromatography on Sep-Pak C18 cartridge (Waters, Milford, Mass.) and eluting the product with 3.0 ml methanol (30). The radioactivity was determined by liquid scintillation as above.
(§5) For such work, a Biogel P2 column (Fine Mesh; 1.0×116.0 cm) was used with 0.1M pyridine acetate pH5.4 as the eluent at room temperature. The effluent fractions were monitored for radioactivity and the first peak containing radioactivity was collected, lyophilized to dryness, dissolved in 200 μl of water and stored frozen at −20° C. for thin layer chromatography (TLC) and other experimentation.

[3] = biological target: T2, Rat recombinant α2,3(N)ST (Rattus norvegicus, UniProt Q02734); assay: Sialyltransferase assay with cloned α2,3(N)ST; type: biochemical; conditions: for Sialyltransferase activity (%) Cloned α2,3(N)ST: Table I, acceptor 7.5 mM, 100% = 29520 CPM (Galβ1,4GlcNAcβ-O—Al); for Cloned Sialyltransferase Activities α2,3(N) ST %: Table III, compound 7.5 mM, 100% = 38140 CPM (Galβ1,4GlcNAcβ1,6(3-O-MeGalβ1,3)GalNAcα-O-Bn)
T2 construct: purchased Calbiochem
T2 sequence (Q02734 29-374 limits assumed): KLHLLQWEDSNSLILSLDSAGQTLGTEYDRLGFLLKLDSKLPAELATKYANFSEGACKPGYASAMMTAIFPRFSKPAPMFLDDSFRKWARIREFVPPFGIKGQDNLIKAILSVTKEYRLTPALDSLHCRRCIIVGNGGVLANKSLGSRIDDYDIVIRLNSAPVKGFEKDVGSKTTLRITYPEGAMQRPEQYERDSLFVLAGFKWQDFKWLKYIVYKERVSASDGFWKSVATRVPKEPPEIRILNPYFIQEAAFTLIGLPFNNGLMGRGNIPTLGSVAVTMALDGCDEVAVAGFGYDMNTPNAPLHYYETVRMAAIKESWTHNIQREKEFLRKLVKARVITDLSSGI
Procedure: as §1, §2, §3, §4, §5

[4] = biological target: T3, Rat recombinant α2,6(N)ST (Rattus norvegicus, UniProt P13721); assay: Sialyltransferase assay with cloned α2,6(N)ST; type: biochemical; conditions: for Sialyltransferase activity (%) Cloned α2,6(N)ST: Table I, acceptor 7.5 mM, 100% = 43500 CPM (Galβ1,4GlcNAcβ-O—Al); for Cloned Sialyltransferase Activities α2,6(N)ST %: Table III, compound 7.5 mM, 100% = 30440 CPM (Galβ1,4GlcNAcβ1,6(3-O-MeGalβ1,3)GalNAcα-O-Bn)
T3 construct: purchased Calbiochem
T3 sequence (P13721 1-403): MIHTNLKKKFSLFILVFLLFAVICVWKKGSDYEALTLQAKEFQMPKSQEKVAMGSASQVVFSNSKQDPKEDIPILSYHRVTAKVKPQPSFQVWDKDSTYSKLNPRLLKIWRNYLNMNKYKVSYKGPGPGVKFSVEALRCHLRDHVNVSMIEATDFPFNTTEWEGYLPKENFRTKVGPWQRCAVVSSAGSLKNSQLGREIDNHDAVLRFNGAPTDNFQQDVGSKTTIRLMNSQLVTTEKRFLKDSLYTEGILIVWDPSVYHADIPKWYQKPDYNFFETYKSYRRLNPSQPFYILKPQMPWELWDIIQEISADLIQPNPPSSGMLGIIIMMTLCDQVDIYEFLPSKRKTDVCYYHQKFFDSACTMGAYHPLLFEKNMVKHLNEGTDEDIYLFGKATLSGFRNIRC
Procedure: as §1, §2, §3, §4, §5

[5] = system: LNCaP α2,3(O)ST; assay: Sialyltransferase assay with LNCaP cell extract; type: biochemical, human; conditions: for Sialyltransferase activity (%) LNCaP α2,3(O)ST: Table I, acceptor 7.5 mM, 100% = 30930 CPM (3-O-MeGalβ1,4GlcNAcβ1,6(Galβ1,3)GalNAcα-O-Bn); for LNCaPα2,3(O)ST %: Table III, compound 7.5 mM, 100% = 30100 CPM (3-O-MeGalβ1,4GlcNAcβ1,6(Galβ1,3)GalNAcα-O-Bn)
Procedure: The prostate carcinoma cell line, LNCaP, was grown in RPMI 1640 supplemented with 10% fetal bovine serum and antibiotics (penicillin, streptomycin and amphotericin B) under conditions recommended by American Type Culture Collection (Manassas, Va.). The cells were homogenized with 0.1M Tris-Maleate pH6.3 containing 2% Triton X-100 using a Dounce all glass hand-operated homogenizer. The homogenate was centrifuged at 16,000 g for 1 h at 4° C. Protein concentration in supernatant was measured using the BCA assay (Pierce Biotech, Inc., Rockford, Ill.), with BSA as the standard. The supernatant was adjusted to 5 mg protein/ml by adding the necessary amount of extraction buffer and then stored frozen at −20° C. until use. 10 μl aliquot of this extract was used in assays run in duplicate.
as §2, §3, §4, §5

SMILES	Sialyltransferase activity (%) Cloned α2,3(O)ST [1]	Sialyltransferase activity (%) Cloned α2,3(O)ST [2]	Sialyltransferase activity (%) Cloned α2,3(N)ST [3]	Sialyltransferase activity (%) Cloned α2,6(N)ST [4]	Sialyltransferase activity (%) LNCaP α2,3(O)ST [5]	Cloned Sialyltransferase Activities α2,3(O) ST % [2]	Cloned Sialyltransferase Activities α2,3(N) ST % [3]	Cloned Sialyltransferase Activities α2,6(N)ST % [4]	acceptor concentration at which maximum activity is reached (FIG. 3D) ([5]; LNCaPα2,3(O)ST) [mM]	LNCaPα2,3(O)ST % [5]	Sialyltransferase activity (%) Cloned α2,3(N)ST ([3]; listed as Galβ1,4(6-O-Sulfo)GlcNAcβ1,6(Galβ1,3)GalNAcα-) [%]
CC(=O)NC1C(OCC2OC(OCc3ccccc3)C(NC(C)=O)C(OC3OC(CO)C(O)C(O)C3O)C2O)OC(COS(=O)(=O)O)C(OC2OC(CO)C(O)C(O)C2O)C1O (stereo not shown) [Galβ1,4(6-O-Sulfo)GlcNAcβ1,6(Galβ1,3)GalNAcα-O-Bn]	69.4% and 69.4^e %										
CC(=O)N[C@H]1[C@H](OC[C@H]2O[C@H](OCc3ccccc3)[C@H](NC(C)=O)[C@@H](O[C@@H]3O[C@H](CO)[C@H](O)[C@H](O)[C@H]3O)[C@H]2O)O[C@H](COS(=O)(=O)O)[C@@H](O)[C@@H]1O [6-O-SulfoGlcNAcβ1,6(Galβ1,3)GalNAcα-O-Bn]	49.4% and 49.4^e,5%										
C=CCOC1OC(CO)C(O)C(OC2OC(CO)C(O)C(O)C2O)C1NC(C)=O (stereo not shown) [Galβ1,3GlcNAcβ-O—Al]		42.1%	123.1%	3.0%	3.7%						
CO[C@@H]1[C@H](O)[C@@H](O)[C@H](O[C@H]2[C@@H](O)[C@@H](CO[C@@H]3O[C@H](CO)[C@@H](O[C@@H]4O[C@H](CO)[C@H](O)[C@H](O)[C@H]4O)[C@H](O)[C@H]3NC(C)=O)O[C@H](OCc3ccccc3)[C@@H]2NC(C)=O)O[C@@H]1CO [Galβ1,4GlcNAcβ1,6(4-O-MeGalβ1,3)GalNAcα-O-Bn]						101.3%	100.6%	101.3%	0.15	112.0%	
C=CCO[C@@H]1O[C@H](CO)[C@@H](O[C@@H]2O[C@H](CO)[C@H](O)[C@H](O)[C@H]2O)[C@H](O)[C@H]1NC(C)=O [Galβ1,4GlcNAcβ-O—Al]		4.7%	100.0^a %	100.0% and 100.0^b %	0.5%						
CC(=O)N[C@H]1[C@H](OC[C@H]2O[C@H](OCc3ccccc3)[C@H](NC(C)=O)[C@@H](O[C@@H]3O[C@H](CO)[C@H](O)[C@H](F)[C@H]3O)[C@H]2O)O[C@H](CO)[C@@H](O[C@@H]2O[C@H](CO)[C@H](O)[C@H](O)[C@H]2O)[C@@H]1O [Galβ1,4GlcNAcβ1,6(3-FGalβ1,3)GalNAcα-O-Bn]						77.2%	96.9^25%	77.7^19%		1.7%	
CO[C@H]1[C@@H](O)[C@@H](CO)O[C@@H](O[C@H]2[C@H](O)[C@@H](NC(C)=O)[C@H](OC[C@H]3O[C@H](OCc4ccccc4)[C@H](NC(C)=O)[C@@H](O[C@@H]4O[C@H](CO)[C@H](O)[C@H](O)[C@H]4O)[C@H]3O)O[C@@H]2CO)[C@@H]1O [3-O-MeGalβ1,4GlcNAcβ1,6(Galβ1,3)GalNAcα-O-Bn]		100.0% and 100.0^c %	6.1%	4.4%	100.9% and 100.0% and 100.0^d %	100.0^c %	4.5%	6.4%		100.0^d %	
CO[C@H]1O[C@H](CO[C@@H]2O[C@H](COS(=O)(=O)O)[C@@H](O[C@@H]3O[C@H](CO)[C@H](O)[C@H](O)[C@H]3O)[C@H](O)[C@H]2NC(C)=O)[C@H](O)[C@H](O[C@@H]2O[C@H](CO)[C@H](O)[C@H](O)[C@H]2O)[C@H]1NC(C)=O [Galβ1,4(6-O-Sulfo)GlcNAcβ1,6(Galβ1,3)GalNAcα-O-Me]		27.2%	28.1% and 28.1^21%	30.6^17%	14.8%						28.1
CO[C@H]1[C@@H](O)[C@@H](CO)O[C@@H](O[C@H]2[C@@H](O)[C@@H](CO[C@@H]3O[C@H](CO)[C@@H](O[C@@H]4O[C@H](CO)[C@H](O)[C@H](O)[C@H]4O)[C@H](O)[C@H]3NC(C)=O)O[C@H](OCc3ccccc3)[C@@H]2NC(C)=O)[C@@H]1O [Galβ1,4GlcNAcβ1,6(3-O-MeGalβ1,3)GalNAcα-O-Bn]		49.6%	95.3%	97.7%	3.0%	49.6%	100.0^b %	100.0^a %		3.0%	
